Measurements: patent publication US20100004234A1, “SPECIFIC KINASE INHIBITORS” (Kosan Biosciences Incorporated, priority 2004, published 2010)
Read-outs that look alike come from different tables or passages of the source.

Legend:
[1] = test system: A375 (Human melanoma, B-Raf V599E); assay: Cell proliferation assay (Cell Titer Glo); assay type: cell-based; conditions: Homo sapiens, A-375, read-out: Kinase Inhibitor IC50
Experimental: (§1) In one illustrative method, cells are treated with various concentrations of the inhibitor in 96 well plates, incubated at 37° C./5% CO2 for three days, and analyzed using the Cell Titer Glo kit (Promega).

[2] = test system: EOL-1 (Human leukemia FLP1L1-PDGFRA); assay: Cell proliferation assay (Cell Titer Glo); assay type: cell-based; conditions: Homo sapiens, EOL1, read-out: Kinase Inhibitor IC50
Experimental: as §1

[3] = test system: MV4-11 (Human leukemia Flt3-ITD); assay: Cell proliferation assay (Cell Titer Glo); assay type: cell-based; conditions: Homo sapiens
Experimental: as §1

[4] = test system: A549 (NSCLC, B-Raf wild-type); assay: Cell proliferation assay (Cell Titer Glo); assay type: cell-based; conditions: Homo sapiens, A549, read-out: Kinase Inhibitor IC50
Experimental: as §1

[5] = test system: ASZ001 (Basal cell carcinoma); assay: Cell proliferation assay (Cell Titer Glo); assay type: cell-based
Experimental: as §1

[6] = test system: WM266-4 (Human melanoma, B-Raf V599D); assay: Cell proliferation assay (Cell Titer Glo); assay type: cell-based; conditions: Homo sapiens, WM 266-4, read-out: Kinase Inhibitor IC50
Experimental: as §1

CDK6/cyclinD3(h) = CDK6/cyclinD3(h) (Homo sapiens, UniProt Q00534); assay: Kinase panel, residual activity; assay type: biochemical; conditions: read-out: Percent residual activity
Experimental: (§2) In this panel of 124 kinases, 18 of the 19 kinases identified as having an active site cysteine were inhibited to some extent by hypothemycin at a concentration of 0.2 μM and/or 2 μM.

PRAK(h) = PRAK(h) (Homo sapiens, UniProt Q8IW41); assay: Kinase panel, residual activity; assay type: biochemical; conditions: read-out: Percent residual activity
Experimental: as §2

BTK(h) = BTK(h) (Homo sapiens, UniProt Q06187); assay: Kinase panel, residual activity; assay type: biochemical; conditions: read-out: Percent residual activity
Experimental: as §2

EphA2(h) = EphA2(h) (Homo sapiens, UniProt P29317); assay: Kinase panel, residual activity; assay type: biochemical; conditions: read-out: Percent residual activity
Experimental: as §2

Flt3(D835Y)(h) = Flt3(D835Y)(h) (Homo sapiens, UniProt P36888, D835Y); assay: Kinase panel, residual activity; assay type: biochemical; conditions: read-out: Percent residual activity
Experimental: as §2

CDK2/cyclinE(h) = CDK2/cyclinE(h) (Homo sapiens, UniProt P24941); assay: Kinase panel, residual activity; assay type: biochemical; conditions: read-out: Percent residual activity
Experimental: as §2

EGFR(h) = EGFR(h) (Homo sapiens, UniProt P00533); assay: Kinase panel, residual activity; assay type: biochemical; conditions: read-out: Percent residual activity
Experimental: as §2

CHK2(h) = CHK2(h) (Homo sapiens, UniProt O96017); assay: Kinase panel, residual activity; assay type: biochemical; conditions: read-out: Percent residual activity
Experimental: as §2

Fgr(h) = Fgr(h) (Homo sapiens, UniProt P09769); assay: Kinase panel, residual activity; assay type: biochemical; conditions: read-out: Percent residual activity
Experimental: as §2

PKCμ(h) = PKCμ(h) (Homo sapiens, UniProt Q15139); assay: Kinase panel, residual activity; assay type: biochemical; conditions: read-out: Percent residual activity
Experimental: as §2

Yes(h) = Yes(h) (Homo sapiens, UniProt P07947); assay: Kinase panel, residual activity; assay type: biochemical; conditions: read-out: Percent residual activity
Experimental: as §2

Axl(h) = Axl(h) (Homo sapiens, UniProt P30530); assay: Kinase panel, residual activity; assay type: biochemical; conditions: read-out: Percent residual activity
Experimental: as §2

IRAK4(h) = IRAK4(h) (Homo sapiens, UniProt Q9NWZ3); assay: Kinase panel, residual activity; assay type: biochemical; conditions: read-out: Percent residual activity
Experimental: as §2

NEK7(h) = NEK7(h) (Homo sapiens, UniProt Q8TDX7); assay: Kinase panel, residual activity; assay type: biochemical; conditions: read-out: Percent residual activity
Experimental: as §2

cSRC(h) = cSRC(h) (Homo sapiens, UniProt P12931); assay: Kinase panel, residual activity; assay type: biochemical; conditions: read-out: Percent residual activity
Experimental: as §2

Syk(h) = Syk(h) (Homo sapiens, UniProt P43405); assay: Kinase panel, residual activity; assay type: biochemical; conditions: read-out: Percent residual activity
Experimental: as §2

MEK1(h) = MEK1(h) (Homo sapiens, UniProt Q02750); assay: Kinase panel, residual activity; assay type: biochemical; conditions: read-out: Percent residual activity
Experimental: as §2

ROCK-II(h) = ROCK-II(h) (Homo sapiens, UniProt O75116); assay: Kinase panel, residual activity; assay type: biochemical; conditions: read-out: Percent residual activity
Experimental: as §2

CSK(h) = CSK(h) (Homo sapiens, UniProt P41240); assay: Kinase panel, residual activity; assay type: biochemical; conditions: read-out: Percent residual activity
Experimental: as §2

FGFR4(h) = FGFR4(h) (Homo sapiens, UniProt P22455); assay: Kinase panel, residual activity; assay type: biochemical; conditions: read-out: Percent residual activity
Experimental: as §2

Fyn(h) = Fyn(h) (Homo sapiens, UniProt P06241); assay: Kinase panel, residual activity; assay type: biochemical; conditions: read-out: Percent residual activity
Experimental: as §2

CDK3/cyclinE(h) = CDK3/cyclinE(h) (Homo sapiens, UniProt Q00526); assay: Kinase panel, residual activity; assay type: biochemical; conditions: read-out: Percent residual activity
Experimental: as §2

Rse(h) = Rse(h) (Homo sapiens, UniProt Q06418); assay: Kinase panel, residual activity; assay type: biochemical; conditions: read-out: Percent residual activity
Experimental: as §2

MAPK2(h) = MAPK2(h) (Homo sapiens, UniProt P28482); assay: Kinase panel, residual activity; assay type: biochemical; conditions: read-out: Percent residual activity
Experimental: as §2

PKCγ(h) = PKCγ(h) (Homo sapiens, UniProt P05129); assay: Kinase panel, residual activity; assay type: biochemical; conditions: read-out: Percent residual activity
Experimental: as §2

MKK6(h) = MKK6(h) (Homo sapiens, UniProt P52564); assay: Kinase panel, residual activity; assay type: biochemical; conditions: read-out: Percent residual activity
Experimental: as §2

c-RAF(h) = c-RAF(h) (Homo sapiens, UniProt P04049); assay: Kinase panel, residual activity; assay type: biochemical; conditions: read-out: Percent residual activity
Experimental: as §2

PKCι(h) = PKCι(h) (Homo sapiens, UniProt P41743); assay: Kinase panel, residual activity; assay type: biochemical; conditions: read-out: Percent residual activity
Experimental: as §2

MEK1(h), sequence (Q02750 whole entry): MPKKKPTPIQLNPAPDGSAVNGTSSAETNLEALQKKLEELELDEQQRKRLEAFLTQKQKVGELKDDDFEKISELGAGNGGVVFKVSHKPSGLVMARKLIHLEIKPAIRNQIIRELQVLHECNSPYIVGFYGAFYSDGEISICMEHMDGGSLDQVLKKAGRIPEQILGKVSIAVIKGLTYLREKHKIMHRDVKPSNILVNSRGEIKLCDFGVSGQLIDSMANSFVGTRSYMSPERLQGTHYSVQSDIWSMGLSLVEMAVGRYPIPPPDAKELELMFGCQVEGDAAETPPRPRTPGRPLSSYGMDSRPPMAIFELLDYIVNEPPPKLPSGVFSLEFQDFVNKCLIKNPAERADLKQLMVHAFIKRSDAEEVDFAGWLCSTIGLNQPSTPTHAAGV
PKCμ(h), sequence (Q15139 whole entry): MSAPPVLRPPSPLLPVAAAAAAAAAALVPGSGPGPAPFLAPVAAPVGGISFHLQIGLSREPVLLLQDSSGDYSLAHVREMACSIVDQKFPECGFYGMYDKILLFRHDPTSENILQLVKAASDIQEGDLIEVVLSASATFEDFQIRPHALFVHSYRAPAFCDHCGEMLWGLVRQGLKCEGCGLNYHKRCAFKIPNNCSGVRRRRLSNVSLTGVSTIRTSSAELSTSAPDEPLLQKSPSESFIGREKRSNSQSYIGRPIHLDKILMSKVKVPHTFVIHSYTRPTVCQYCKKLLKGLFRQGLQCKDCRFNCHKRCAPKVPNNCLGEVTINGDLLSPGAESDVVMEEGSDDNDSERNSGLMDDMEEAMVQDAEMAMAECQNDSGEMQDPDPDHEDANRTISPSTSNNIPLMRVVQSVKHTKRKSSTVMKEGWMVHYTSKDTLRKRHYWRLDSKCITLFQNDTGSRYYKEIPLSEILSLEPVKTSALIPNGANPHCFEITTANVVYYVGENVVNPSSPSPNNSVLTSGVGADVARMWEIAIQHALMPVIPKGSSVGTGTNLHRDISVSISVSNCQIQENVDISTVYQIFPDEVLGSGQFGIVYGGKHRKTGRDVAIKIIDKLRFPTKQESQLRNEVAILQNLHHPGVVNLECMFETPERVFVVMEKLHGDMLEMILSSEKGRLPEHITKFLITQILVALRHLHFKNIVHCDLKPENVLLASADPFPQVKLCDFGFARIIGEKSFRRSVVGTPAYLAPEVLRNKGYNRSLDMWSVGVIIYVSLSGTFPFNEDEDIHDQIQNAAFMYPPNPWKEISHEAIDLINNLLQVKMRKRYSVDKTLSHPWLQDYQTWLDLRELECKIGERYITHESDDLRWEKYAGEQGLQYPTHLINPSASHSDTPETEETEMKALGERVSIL
EGFR(h), sequence (P00533 25-1210): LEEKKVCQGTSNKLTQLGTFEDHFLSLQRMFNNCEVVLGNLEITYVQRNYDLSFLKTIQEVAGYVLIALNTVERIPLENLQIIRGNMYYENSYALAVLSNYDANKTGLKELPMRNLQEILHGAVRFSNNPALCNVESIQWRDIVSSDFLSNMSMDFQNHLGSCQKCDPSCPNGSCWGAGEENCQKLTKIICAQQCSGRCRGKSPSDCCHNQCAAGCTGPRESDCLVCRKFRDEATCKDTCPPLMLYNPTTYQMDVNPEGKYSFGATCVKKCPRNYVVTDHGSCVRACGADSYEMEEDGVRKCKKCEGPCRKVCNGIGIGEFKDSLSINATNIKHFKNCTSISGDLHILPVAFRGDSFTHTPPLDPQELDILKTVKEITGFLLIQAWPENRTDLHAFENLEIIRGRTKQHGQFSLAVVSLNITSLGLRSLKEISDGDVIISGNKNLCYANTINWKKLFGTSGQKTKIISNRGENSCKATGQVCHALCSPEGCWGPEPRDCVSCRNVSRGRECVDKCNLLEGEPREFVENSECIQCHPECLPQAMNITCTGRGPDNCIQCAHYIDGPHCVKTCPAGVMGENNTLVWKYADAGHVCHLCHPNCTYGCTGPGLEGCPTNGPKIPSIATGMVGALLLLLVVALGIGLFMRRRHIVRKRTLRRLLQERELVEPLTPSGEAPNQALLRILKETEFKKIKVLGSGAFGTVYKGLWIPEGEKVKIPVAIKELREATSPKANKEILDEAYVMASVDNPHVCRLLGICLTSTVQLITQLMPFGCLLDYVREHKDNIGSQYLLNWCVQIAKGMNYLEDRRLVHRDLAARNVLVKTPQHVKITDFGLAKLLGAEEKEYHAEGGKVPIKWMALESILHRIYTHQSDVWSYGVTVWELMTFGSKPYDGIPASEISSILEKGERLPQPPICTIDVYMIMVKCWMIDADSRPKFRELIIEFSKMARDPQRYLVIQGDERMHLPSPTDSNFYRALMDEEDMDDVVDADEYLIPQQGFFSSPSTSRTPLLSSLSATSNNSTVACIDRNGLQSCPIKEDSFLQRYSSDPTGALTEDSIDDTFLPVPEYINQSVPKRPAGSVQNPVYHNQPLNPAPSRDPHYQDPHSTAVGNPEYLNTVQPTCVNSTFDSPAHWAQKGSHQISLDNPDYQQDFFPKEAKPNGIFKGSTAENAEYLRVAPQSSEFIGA
PRAK(h), sequence (Q8IW41 whole entry): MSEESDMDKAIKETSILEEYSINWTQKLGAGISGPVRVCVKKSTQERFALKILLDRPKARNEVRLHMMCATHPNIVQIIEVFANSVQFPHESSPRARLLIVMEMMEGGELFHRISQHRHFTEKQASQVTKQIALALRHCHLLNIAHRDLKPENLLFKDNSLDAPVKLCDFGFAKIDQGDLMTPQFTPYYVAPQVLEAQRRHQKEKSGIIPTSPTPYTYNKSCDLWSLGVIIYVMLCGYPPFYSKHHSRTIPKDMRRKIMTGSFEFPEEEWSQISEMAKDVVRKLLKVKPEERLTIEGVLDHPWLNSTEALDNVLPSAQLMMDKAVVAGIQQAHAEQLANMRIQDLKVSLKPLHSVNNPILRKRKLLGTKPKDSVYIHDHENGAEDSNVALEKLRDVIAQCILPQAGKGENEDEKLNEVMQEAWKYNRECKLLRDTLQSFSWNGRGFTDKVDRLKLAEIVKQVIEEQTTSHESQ
cSRC(h), sequence (P12931 whole entry): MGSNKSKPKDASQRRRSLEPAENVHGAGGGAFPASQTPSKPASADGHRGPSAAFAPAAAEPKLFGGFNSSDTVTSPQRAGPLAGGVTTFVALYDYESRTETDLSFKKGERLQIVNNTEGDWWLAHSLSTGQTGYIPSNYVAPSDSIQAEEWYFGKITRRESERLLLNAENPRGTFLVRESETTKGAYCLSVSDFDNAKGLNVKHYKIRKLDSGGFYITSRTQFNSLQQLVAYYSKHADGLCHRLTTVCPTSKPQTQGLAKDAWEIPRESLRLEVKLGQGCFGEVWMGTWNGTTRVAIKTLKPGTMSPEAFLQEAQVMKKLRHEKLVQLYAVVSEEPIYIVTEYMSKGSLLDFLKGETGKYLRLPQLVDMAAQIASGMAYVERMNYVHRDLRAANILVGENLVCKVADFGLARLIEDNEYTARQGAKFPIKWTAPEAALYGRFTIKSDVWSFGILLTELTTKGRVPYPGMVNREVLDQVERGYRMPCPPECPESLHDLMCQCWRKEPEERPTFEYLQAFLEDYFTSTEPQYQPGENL
MKK6(h), sequence (P52564 whole entry): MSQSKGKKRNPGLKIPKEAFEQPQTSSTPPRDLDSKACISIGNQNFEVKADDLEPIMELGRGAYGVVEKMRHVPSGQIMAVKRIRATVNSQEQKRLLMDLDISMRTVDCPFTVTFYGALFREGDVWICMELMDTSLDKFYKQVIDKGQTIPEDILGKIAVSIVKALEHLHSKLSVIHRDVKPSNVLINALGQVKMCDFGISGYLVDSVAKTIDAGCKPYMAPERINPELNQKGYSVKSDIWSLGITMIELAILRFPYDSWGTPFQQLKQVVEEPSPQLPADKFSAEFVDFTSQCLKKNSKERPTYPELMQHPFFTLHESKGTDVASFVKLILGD
MAPK2(h), sequence (P28482 whole entry): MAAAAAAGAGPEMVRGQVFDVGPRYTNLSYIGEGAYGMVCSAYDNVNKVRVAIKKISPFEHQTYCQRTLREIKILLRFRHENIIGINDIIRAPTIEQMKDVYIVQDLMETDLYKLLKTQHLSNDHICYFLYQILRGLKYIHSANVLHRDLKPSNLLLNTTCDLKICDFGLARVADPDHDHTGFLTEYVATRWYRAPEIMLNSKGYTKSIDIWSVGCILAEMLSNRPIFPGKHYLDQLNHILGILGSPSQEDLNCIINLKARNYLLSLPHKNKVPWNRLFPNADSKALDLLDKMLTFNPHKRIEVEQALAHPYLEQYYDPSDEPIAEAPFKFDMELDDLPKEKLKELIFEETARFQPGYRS
CSK(h), sequence (P41240 whole entry): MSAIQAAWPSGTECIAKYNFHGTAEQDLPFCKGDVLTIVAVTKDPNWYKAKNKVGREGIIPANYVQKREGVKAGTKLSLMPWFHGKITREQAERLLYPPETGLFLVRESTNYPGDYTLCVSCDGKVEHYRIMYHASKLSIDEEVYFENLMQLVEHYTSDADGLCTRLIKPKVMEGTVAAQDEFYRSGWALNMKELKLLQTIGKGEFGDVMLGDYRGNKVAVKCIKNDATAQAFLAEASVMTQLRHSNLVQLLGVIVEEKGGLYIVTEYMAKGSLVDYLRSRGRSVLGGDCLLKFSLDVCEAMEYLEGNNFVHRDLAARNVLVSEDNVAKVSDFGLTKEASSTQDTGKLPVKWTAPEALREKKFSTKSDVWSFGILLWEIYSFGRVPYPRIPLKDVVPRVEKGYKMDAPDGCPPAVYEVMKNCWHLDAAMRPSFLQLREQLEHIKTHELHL
NEK7(h), sequence (Q8TDX7 whole entry): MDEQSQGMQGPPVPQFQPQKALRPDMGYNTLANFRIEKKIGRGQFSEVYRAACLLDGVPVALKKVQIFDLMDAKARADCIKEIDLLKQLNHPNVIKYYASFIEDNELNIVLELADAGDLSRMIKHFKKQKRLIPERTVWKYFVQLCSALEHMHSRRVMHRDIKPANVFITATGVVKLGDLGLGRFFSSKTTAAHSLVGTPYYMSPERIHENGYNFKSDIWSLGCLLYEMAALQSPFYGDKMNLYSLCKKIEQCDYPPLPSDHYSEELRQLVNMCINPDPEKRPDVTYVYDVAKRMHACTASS

`COc1cc(O)c2c(c1)[C@H]1O[C@@H]1C[C@H](O)[C@H](O)C(=O)/C=C\C[C@H](C)OC2=O` [Hypothemycin, hypothemycin] showed an IC50 [1] of 180 nM, an IC50 [2] of 0.41 nM and a GI50 ([3]; MV4-11) of 6 nM. The IC50 ([3]; MV4-11, read-out: Kinase Inhibitor IC50) was 5.5 nM, the IC50 [4] was 6000 nM and the IC50 ([5]; ASZ001 (Basal cell carcinoma), read-out: Kinase Inhibitor IC50) was 100 nM. For the same compound, the IC50 ([5]; BCC cell line ASZ001 in culture, read-out: IC50) was about 100 nM, the IC50 [6] was 40 nM and the remaining activity at 0.2 µM (CDK6/cyclinD3(h)) was 95%. For the same compound, the remaining activity at 0.2 µM (PRAK(h); 0.2 μM) was 20%, the remaining activity at 2 µM (PRAK(h); 2.0 μM) was 1% and the remaining activity at 0.2 µM (BTK(h)) was 104%. The remaining activity at 0.2 µM (EphA2(h)) was 87%, the remaining activity at 0.2 µM (Flt3(D835Y)(h); 0.2 μM) was 4% and the remaining activity at 2 µM (Flt3(D835Y)(h); 2.0 μM) was 2%. The remaining activity at 0.2 µM (CDK2/cyclinE(h)) was 105%, the remaining activity at 0.2 µM (EGFR(h); 0.2 μM) was 106% and the remaining activity at 2 µM (EGFR(h); 2.0 μM) was 94%. It also gave a remaining activity at 0.2 µM (CHK2(h)) of 97%, a remaining activity at 0.2 µM (Fgr(h)) of 100% and a remaining activity at 0.2 µM (PKCμ(h); 0.2 μM) of 34%. For the same compound, the remaining activity at 2 µM (PKCμ(h); 2.0 μM) was 6%, the remaining activity at 0.2 µM (Yes(h)) was 99% and the remaining activity at 0.2 µM (Axl(h)) was 110%. It also gave a remaining activity at 0.2 µM (IRAK4(h)) of 84%, a remaining activity at 0.2 µM (NEK7(h)) of 98% and a remaining activity at 0.2 µM (cSRC(h); 0.2 μM) of 75%. For the same compound, the remaining activity at 2 µM (cSRC(h); 2.0 μM) was 49%, the remaining activity at 0.2 µM (Syk(h)) was 105% and the remaining activity at 0.2 µM (MEK1(h); 0.2 μM) was 54%. The remaining activity at 2 µM (MEK1(h); 2.0 μM) was 8%, the remaining activity at 0.2 µM (ROCK-II(h)) was 104% and the remaining activity at 0.2 µM (CSK(h)) was 104%. It also gave a remaining activity at 0.2 µM (FGFR4(h)) of 87%, a remaining activity at 0.2 µM (Fyn(h)) of 87% and a remaining activity at 0.2 µM (CDK3/cyclinE(h)) of 95%. For the same compound, the remaining activity at 0.2 µM (Rse(h)) was 90%, the remaining activity at 0.2 µM (MAPK2(h); 0.2 μM) was 79% and the remaining activity at 2 µM (MAPK2(h); 2.0 μM) was 5%. For the same compound, the remaining activity at 0.2 µM (PKCγ(h)) was 98%, the remaining activity at 0.2 µM (MKK6(h); 0.2 μM) was 43% and the remaining activity at 2 µM (MKK6(h); 2.0 μM) was 8%. It also gave a remaining activity at 0.2 µM (c-RAF(h)) of 103% and a remaining activity at 0.2 µM (PKCι(h)) of 108%.
